Columns and labels:
Format in all cases: cell-based
[1] = MTT assay (cytotoxicity), LNCaP cells; conditions: human, LNCaP cells, 72 h
Procedure: (§1) MTT assays: LNCaP, 22Rv1, Du145, H1975, A549, MB231 and MCF-7 cells are maintained in RPMI 1640 supplemented with 10% FBS. Cells were seeded at a density of 6-7×10^3 cells per well in 96-well plates. After overnight incubation, cells in fresh RPMI 1640 supplemented with 10% FBS were exposed to DMSO vehicle control or test compounds at designated concentrations for 72 h. Viable cells were evaluated by MTT assays. Experiments were performed in triplicate and repeated at least twice.

[2] = MTT assay (cytotoxicity), DU145 cells; conditions: human, DU145 cells
Procedure: as §1

DU145 cells = assay: MTT assay (cytotoxicity), DU145 cells; conditions: 72 h
Procedure: as §1

22Rv1 cells = assay: MTT assay (cytotoxicity), 22Rv1 cells; conditions: 72 h
Procedure: as §1

LNCaP cells = assay: MTT assay (cytotoxicity), LNCaP cells; conditions: 72 h
Procedure: as §1

[3] = MTT assay (cytotoxicity), 22Rv1 cells; conditions: human, 22Rv1 cells, 72 h
Procedure: as §1

## O=C(N/C=C/c1ccccc1C(F)(F)F)Nc1ccc2c(c1)OCO2 [Compound 427]
[1]; Table 2.3
  IC50 at 72 h: 9.5 µM
[2]; Table 2.3
  IC50 at 72 h: 19.2 µM

## N#Cc1ccc(NC(=O)N/C=C/c2cc(C(F)(F)F)ccc2C(F)(F)F)cn1 [Compound 480]
DU145 cells; Table 2.1
  IC50: 1.7 µM
22Rv1 cells; Table 2.1
  IC50: 1.8 µM

## N#Cc1ccc(NC(=O)Nc2ccc([N+](=O)[O-])c(C(F)(F)F)c2)cc1C(F)(F)F [Compound 465]
LNCaP cells; LNCaP cells, Table 4.2
  IC50: 4.1 µM
DU145 cells; DU145 cells, Table 4.2
  IC50: 5.3 µM
22Rv1 cells; 22Rv1 cells, Table 4.2
  IC50: 5.2 µM

## O=C(N/C=C/c1cc(C(F)(F)F)cc(C(F)(F)F)c1)Nc1cnccc1Cl [Compound 533]
LNCaP cells; Table 2.1
  IC50: 2 µM
DU145 cells; Table 2.1
  IC50: 6.5 µM
22Rv1 cells; Table 2.1
  IC50: 10.9 µM

## O=C(N/C=C/c1cc(C(F)(F)F)ccc1C(F)(F)F)Nc1ccc2ncccc2c1 [Compound 517]
[1]; Table 2.3
  IC50 at 72 h: 3.4 µM
[2]; Table 2.3
  IC50 at 72 h: 6.2 µM
[3]; Table 2.3
  IC50 at 72 h: > 10 µM

## CC(C)(C)OC(=O)n1cc(/C=C/NC(=O)Nc2ccc([N+](=O)[O-])c(C(F)(F)F)c2)c2ccccc21 [Compound 450]
[1]; Table 2.4
  IC50 at 72 h: 1.8 µM
[2]; Table 2.4
  IC50 at 72 h: 4.9 µM
[3]; Table 2.4
  IC50 at 72 h: 4 µM

## N#Cc1ccc(NC(=O)N/C=C/c2cccs2)cc1 [Compound 424]
[1]; Table 2.4
  IC50 at 72 h: 5 µM
[2]; Table 2.4
  IC50 at 72 h: 14.4 µM
[3]; Table 2.4
  IC50 at 72 h: 16.7 µM

## O=C(Nc1cccc(C(F)(F)F)c1)Nc1ccc2[nH]ccc2c1 [Compound 522]
[1]; Table 4.1
  IC50 at 72 h: > 10 µM
[2]; Table 4.1
  IC50 at 72 h: > 10 µM
[3]; Table 4.1
  IC50 at 72 h: > 10 µM

## O=C(N/C=C/c1cc(C(F)(F)F)cc(C(F)(F)F)c1)Nc1ccn(C(=O)N/C=C/c2cc(C(F)(F)F)cc(C(F)(F)F)c2)c(=O)n1 [Compound 532]
[1]; Table 5.1
  IC50 at 72 h: 2.4 µM
[2]; Table 5.1
  IC50 at 72 h: 5.1 µM
[3]; Table 5.1
  IC50 at 72 h: 4.3 µM

## O=C(N/C=C/c1cccc(C(F)(F)F)c1)NCCc1cccc(C(F)(F)F)c1 [Compound 459]
[1]; Table 2.4
  IC50 at 72 h: 7.1 µM
[2]; Table 2.4
  IC50 at 72 h: > 10 µM

## CC/C=C(\C)CN(C(=O)N/C=C/c1cc(C(F)(F)F)cc(C(F)(F)F)c1)c1ccc(C#N)nc1 [Compound 534]
[1]; Table 2.5
  IC50 at 72 h: 6 µM
[2]; Table 2.5
  IC50 at 72 h: 7.1 µM
[3]; Table 2.5
  IC50 at 72 h: 7.3 µM

## CC(C)(C)OC(=O)n1cc(/C=C/NC(=O)Nc2ccc(NC(=O)N/C=C/c3cn(C(=O)OC(C)(C)C)c4ccccc34)cc2)c2ccccc21 [Compound 452]
[1]; Table 5.1
  IC50 at 72 h: > 20 µM
[2]; Table 5.1
  IC50 at 72 h: 3.4 µM
[3]; Table 5.1
  IC50 at 72 h: > 20 µM

## N#Cc1ccc(NC(=O)Nc2cc(C(F)(F)F)cc(C(F)(F)F)c2)cc1C(F)(F)F [Compound 494]
LNCaP cells; LNCaP cells, Table 4.2
  IC50: 0.3 µM
DU145 cells; DU145 cells, Table 4.2
  IC50: 1.5 µM
22Rv1 cells; 22Rv1 cells, Table 4.2
  IC50: 1.6 µM

## O=C(N/C=C/c1cccc(C(F)(F)F)c1)Nc1ccc(-n2ccnc2)cc1 [Compound 446]
LNCaP cells; Table 2.2
  IC50: 11.1 µM
DU145 cells; Table 2.2
  IC50: > 20 µM
22Rv1 cells; Table 2.2
  IC50: 18.4 µM

## O=C(N/C=C/c1ccc(C(F)(F)F)cc1)Nc1ccc2c(c1)OCO2 [Compound 432]
[1]; Table 2.3
  IC50 at 72 h: > 20 µM
[2]; Table 2.3
  IC50 at 72 h: > 20 µM
[3]; Table 2.3
  IC50 at 72 h: > 20 µM

## O=C(Nc1cccc(C(F)(F)F)c1)Nc1ccncn1 [Compound 574]
[1]; Table 4.1
  IC50 at 72 h: 13.8 µM
[2]; Table 4.1
  IC50 at 72 h: > 20 µM
[3]; Table 4.1
  IC50 at 72 h: > 20 µM

## N#Cc1ccc(NC(=O)N/C=C/c2cc(C(F)(F)F)ccc2C(F)(F)F)nc1 [Compound 481]
DU145 cells; Table 2.1
  IC50: 0.8 µM
22Rv1 cells; Table 2.1
  IC50: 2.6 µM

## O=C(NCCc1cccc(C(F)(F)F)c1)Nc1ccc([N+](=O)[O-])c(C(F)(F)F)c1 [Compound 448]
[1]; Table 2.4
  IC50 at 72 h: 1.8 µM
[2]; Table 2.4
  IC50 at 72 h: 7.5 µM
[3]; Table 2.4
  IC50 at 72 h: 4.5 µM

## CN(C)c1ccc(NC(=O)N/C=C/c2cccc(C(F)(F)F)c2)cc1 [Compound 435]
LNCaP cells; Table 2.2
  IC50: 13.1 µM
DU145 cells; Table 2.2
  IC50: 20 µM
22Rv1 cells; Table 2.2
  IC50: > 20 µM

## N#Cc1ccc(NC(=O)N/C=C/c2cccc(C(F)(F)F)c2)cn1 [Compound 510]
LNCaP cells; Table 2.1
  IC50: 3.3 µM
DU145 cells; Table 2.1
  IC50: 5.7 µM
22Rv1 cells; Table 2.1
  IC50: 6.6 µM

## O=C(Nc1cc(C(F)(F)F)cc(C(F)(F)F)c1)Nc1ccc2[nH]ccc2c1 [Compound 530]
[1]; Table 4.1
  IC50 at 72 h: 6 µM
[2]; Table 4.1
  IC50 at 72 h: 8.3 µM
[3]; Table 4.1
  IC50 at 72 h: 7.1 µM

## O=C(N/C=C/c1cc(C(F)(F)F)ccc1C(F)(F)F)Nc1ccc([N+](=O)[O-])c(C(F)(F)F)c1 [Compound 436]
LNCaP cells; Table 2.2
  IC50: 0.5 µM
DU145 cells; Table 2.2
  IC50: 0.7 µM
22Rv1 cells; Table 2.2
  IC50: 0.8 µM

## O=C(N/C=C/c1cccc(C(F)(F)F)c1)Nc1cnc2ccccc2c1 [Compound 525]
[1]; Table 2.3
  IC50 at 72 h: > 10 µM
[2]; Table 2.3
  IC50 at 72 h: > 10 µM
[3]; Table 2.3
  IC50 at 72 h: > 10 µM

## O=C(N/C=C/c1cc(C(F)(F)F)cc(C(F)(F)F)c1)Nc1ncccc1Br [Compound 527]
LNCaP cells; Table 2.1
  IC50: 5.3 µM
DU145 cells; Table 2.1
  IC50: 6.8 µM
22Rv1 cells; Table 2.1
  IC50: 7.6 µM

## O=C(N/C=C/c1cc(C(F)(F)F)cc(C(F)(F)F)c1)Nc1ccc([N+](=O)[O-])c(C(F)(F)F)c1 [Compound 438]
LNCaP cells; Table 2.2
  IC50: 0.5 µM
DU145 cells; Table 2.2
  IC50: 0.9 µM
22Rv1 cells; Table 2.2
  IC50: 0.6 µM

## N#Cc1ccc(NC(=O)N/C=C/c2cc(C(F)(F)F)ccc2C(F)(F)F)cc1 [Compound 468]
LNCaP cells; Table 2.2
  IC50: 0.9 µM
DU145 cells; Table 2.2
  IC50: 1.5 µM
22Rv1 cells; Table 2.2
  IC50: 1.9 µM

Reference: patent US20170273922A1, “UREA AND BIS-UREA BASED COMPOUNDS AND ANALOGUES THEREOF USEFUL IN THE TREATMENT OF ANDROGEN RECEPTOR MEDIATED DISEASES OR DISORDERS” (THE ROYAL INSTITUTION FOR THE ADVACEMENT OF LEARNING/MCGILL …, priority 2014, published 2017)
